From US20230312473A1, “PROCESS FOR THE PREPARATION OF BIHETEROARYL COMPOUNDS AND CRYSTAL FORMS THEREOF” (Genentech, Inc., priority 2020, published 2023)

How the values were obtained:
Type in all cases: physicochemical
[1] = Mechanical stress evaluation: dynamic vapor sorption (DVS)
Description: Compound 1, produced generally according to the method of Example 5, was evaluated for changes induced mechanical stress conditions, where crystallinity was evaluated by XRPD and where thermoanalytic characteristics were measured by differential scanning calorimetry (“DSC”), thermogravimetric analysis (“TGA”) and dynamic vapor sorption (“DVS”).
About 500 mg of compound 1 was dry grinded for about 5 minutes at ambient conditions with a mortar and pestle in order to simulate shear stresses encountered during a dry granulation. […] Furthermore, thermoanalytic data as measured by DSC, TGA, and DVS was only marginally different from compound 1 starting material (see Table 12 below).
The effect of pressure on compound 1 was performed to investigate whether phase transformation could occur during tableting. The conditions were 1.8 T/5 mm compact, 900 MPa, about 30 mg of compound 1, and a dwell time of about 6 seconds). The tablets were analyzed without further treatment and after gentle crushing of the tablets with a pestle. […] FIG. 2 pattern (b) is the XRPD pattern for crushed tablets. FIG. 2 pattern (c) is the XRPD pattern for tablets that were not crushed.
To simulate wet milling, wet manual grinding experiments were done. About 500 mg of compound 1 and about 0.5 mL water were kneaded for about 5 minutes with a mortar and pestle. About 100 mg of the wet material was analyzed by XRPD. The remainder of the material was dried overnight in an oven at 50° C. and ambient pressure. The dried material was analyzed by […], DSC, TGA, and DVS.

[2] = Solubility of compound (1) in solvents at 0° C. and the respective maximum process temperature; details: for Solubility at max temp / Solubility at 0° C.: Form A
Source text: Prior art processes for preparing compound (1) used isopropyl acetate for final crystallization, having a yield of 84% at a relatively low concentration of 3.0%-w/w. […] It was known from previous qualitative experimental data as well as solubility prediction (numerical simulation) that the possible list is reduced since the solubility of GDC-0134 in alcohols is too low. From a process design perspective, a simple cooling crystallization is preferred over other designs like antisolvent or evaporative crystallization especially because of easier process control. […] Mainly esters but also acetonitrile, methyl isobutyl ketone (MIBK), and 2-MeTHF were on the shortlist for precise solubility determination. The solubility of compound (1) in these solvents is Table 5 for 0° C. and the respective maximum process temperatures. […] While the solubility in acetonitrile is very low even for high temperatures, mixtures of 2-MeTHF and acetonitrile show a synergistic effect at least for a 1:1 mixture. The solubility at 70° C. is the highest among the investigated systems, and the theoretical yield is close to 90%. Due to concerns with regard to the efficient removal of acetonitrile to acceptable levels after drying, 2-MeTHF/acetonitrile-mixtures were not further investigated, though. MIBK offered the highest theoretical yield plus a significant increase in concentration compared to iPrOAc and it was selected for a more detailed investigation

[3] = Solubility of compound I free base in MIBK
Description: In one aspect, the dissolution solvent is MIBK. The solubility of compound I free base in MIBK is about 8.2 wt. % at 90° C., about 5.2 wt. % at 80° C., about 4 wt. % at 70° C., about 3 wt. % at 60° C., about 2 wt. % at 50° C., about 1.4 wt. % at 40° C., about 1 wt. % at 30° C., about 0.9 wt. % at 20° C., about 0.6 wt. % at 10° C., about 0.4 wt. % at 0° C., and about 0.2 wt. % at −10° C. In some aspects, a 6.5 wt. % to 7.5 wt. % solution of compound I free base in MIBK is formed at 90° C. Following filtration at about 90° C., the solution may be cooled to about 75° C. following by addition of seed crystals to form a slurry, and optionally held (aged) at that temperature for a period of time, such as from about 0.5 to about 2 hours. The slurry may then be cooled, such as for instance to about −10° C., and aged at that temperature for a period of time, such as from about 2 to about 10 hours. Solid crystallized compound I may be isolated, and washed with chilled MIBK (e.g., at about 0° C. to about 10° C.) and then with chilled alcohol, such as ethanol (e.g., at about 0° C. to about 10° C.). Crystalline compound I may be dried at a temperature of from about 40° C. to about 70° C. (e.g., 60° C.) under vacuum (e.g., about 20 mbar or less) until a constant weight is achieved.

With Nc1ncc(-c2cc(N3C[C@@H]4C[C@H]3CO4)nc(N3CCC(F)(F)C3)n2)cc1OC(F)F [Compound 1, 5-(6-((1S,4S)-2-oxa-5-azabicyclo[2.2.1]heptan-5-yl)-2-(3,3-difluoropyrrolidin-1-yl)pyrimidin-4-yl)-3-(difluoromethoxy)pyridin-2-amine] the “DVS Δm (0-90% RH)” value ([1]; after Dry Granulation (dry grinding about 5 minutes, mortar and pestle)) was 0.1% m/m, the “DVS Δm (0-90% RH)” value ([1]; after Tableting (900 MPa)) was less than 0.1% m/m and the “DVS Δm (0-90% RH)” value ([1]; after Tableting (crushing)) was 0.1% m/m. For the same molecule, the “DVS Δm (0-90% RH)” value ([1]; after Wet Granulation (wet manual grinding with water, dried at 50° C.)) was less than 0.1% m/m, the “hygroscopicity by DVS” value ([1]; compacted (tableted) samples versus starting material) was “did not show a significant increase of hygroscopicity” and the “DVS Δm (0-90% RH)” value ([1]; untreated compound 1 starting material) was less than 0.1% m/m. For the same molecule, the solubility in alcohols ([2]; previous qualitative experimental data and solubility prediction) was “too low”, the “Solubility at max temp” value ([2]; solvent: 2-MeTHF:MeCN (1:1), 70 ° C.) was 7.3 w/w % and the “Solubility at 0° C.” value ([2]; solvent: 2-MeTHF:MeCN (1:1)) was 0.8 w/w %. The “Solubility at max temp” value ([2]; solvent: 2-MeTHF:MeCN (3:1), 70 ° C.) was 2.2 w/w %, the “Solubility at 0° C.” value ([2]; solvent: 2-MeTHF:MeCN (3:1)) was 1.7 w/w % and the “Solubility at max temp” value ([2]; solvent: 2-MeTHF, 70 ° C.) was 5.2 w/w %. For the same molecule, the “Solubility at 0° C.” value ([2]; solvent: 2-MeTHF) was 1.6 w/w %, the “Solubility at max temp” value ([2]; solvent: Acetonitrile, 70 ° C.) was 1.4 w/w % and the “Solubility at 0° C.” value ([2]; solvent: Acetonitrile) was 0.5 w/w %. The “Solubility at max temp” value ([2]; solvent: Ethylacetate, 70 ° C.) was 4.8 w/w %, the “Solubility at 0° C.” value ([2]; solvent: Ethylacetate) was 0.9 w/w % and the “Solubility at max temp” value ([2]; solvent: MIBK, 80 ° C.) was 5.2 w/w %. The “Solubility at 0° C.” value ([2]; solvent: MIBK) was 0.4 w/w %, the “Solubility at max temp” value ([2]; solvent: Methylacetate, 50 ° C.) was 4.9 w/w % and the “Solubility at 0° C.” value ([2]; solvent: Methylacetate) was 1.3 w/w %. For the same molecule, the “Solubility at max temp” value ([2]; solvent: i-propyl acetate, 80 ° C.) was 4.2 w/w %, the “Solubility at 0° C.” value ([2]; solvent: i-propyl acetate) was 0.4 w/w % and the “Solubility at max temp” value ([2]; solvent: n-propyl acetate, 80 ° C.) was 4.3 w/w %. The “Solubility at 0° C.” value ([2]; solvent: n-propyl acetate) was 0.8 w/w %, the “solubility in MIBK” value ([3]; 0° C.) was “about 0.4 wt. %” and the “solubility in MIBK” value ([3]; 10° C.) was “about 0.6 wt. %”. The “solubility in MIBK” value ([3]; 20° C.) was “about 0.9 wt. %”, the “solubility in MIBK” value ([3]; 30° C.) was “about 1 wt. %” and the “solubility in MIBK” value ([3]; 40° C.) was “about 1.4 wt. %”. The “solubility in MIBK” value ([3]; 50° C.) was “about 2 wt. %”, the “solubility in MIBK” value ([3]; 60° C.) was “about 3 wt. %” and the “solubility in MIBK” value ([3]; 70° C.) was “about 4 wt. %”. For the same molecule, the “solubility in MIBK” value ([3]; 80° C.) was “about 5.2 wt. %”, the “solubility in MIBK” value ([3]; 90° C.) was “about 8.2 wt. %” and the “solubility in MIBK” value ([3]; −10° C.) was “about 0.2 wt. %”.
